Measurements as given in the supplement of paper PMC10307832.

Key:
Assay in all cases: relative viability (nuclei count vs DMSO), 5 days (fraction); higher = more cells survive
NCI-H727 = test system: NCI-H727
Method in brief: (§1)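 The day after seeding in 1536-well plates, lung cancer cell lines were treated by pin tool with a single drug, or with a fixed anchor-drug dose together with five library-drug doses (not always all listed) in √10 steps. After 5 days, a combined fix-and-stain solution (final 0.05% Triton X-100, 1% formaldehyde, 1 ug/ml Hoechst) was added. Nuclei counted on 4× images gave relative viability as treated counts over vehicle counts, reported as the median of duplicate plates.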

NCI-H838 = test system: NCI-H838
Method in brief: as §1

LK-2 = test system: LK-2
Method in brief: as §1

NCI-H1355 = test system: NCI-H1355
Method in brief: as §1

SW 1573 = test system: SW 1573
Method in brief: as §1

UMC-11 = test system: UMC-11
Method in brief: as §1

NCI-H1734 = test system: NCI-H1734
Method in brief: as §1

NCI-H2228 = test system: NCI-H2228
Method in brief: as §1

NCI-H520 = test system: NCI-H520
Method in brief: as §1

NCI-H2347 = test system: NCI-H2347
Method in brief: as §1

201T = test system: 201T
Method in brief: as §1

NCI-H2009 = test system: NCI-H2009
Method in brief: as §1

LOU-NH91 = test system: LOU-NH91
Method in brief: as §1

HCC-44 = test system: HCC-44
Method in brief: as §1

NCI-H1650 = test system: NCI-H1650
Method in brief: as §1

NCI-H1755 = test system: NCI-H1755
Method in brief: as §1

NCI-H358 = test system: NCI-H358
Method in brief: as §1

HCC-366 = test system: HCC-366
Method in brief: as §1

HCC-78 = test system: HCC-78
Method in brief: as §1

ABC-1 = test system: ABC-1
Method in brief: as §1

NCI-H2405 = test system: NCI-H2405
Method in brief: as §1

BEN = test system: BEN
Method in brief: as §1

NCI-H1666 = test system: NCI-H1666
Method in brief: as §1

## Cc1cnc(-c2cnc(NCCNc3ccc(C#N)cn3)nc2-c2ccc(Cl)cc2Cl)[nH]1 + Cc1cc(Nc2cc(N3CCN(C)CC3)nc(Sc3ccc(NC(=O)C4CC4)cc3)n2)n[nH]1 [Tozasertib] (partner 0.1 µM)
NCI-H727; first compound 0.08 µM
  relative viability: 0.639
NCI-H727; first compound 0.253 µM
  relative viability: 0.497
NCI-H727; first compound 0.8 µM
  relative viability: 0.603
NCI-H727; first compound 2.53 µM
  relative viability: 0.422
NCI-H838; first compound 0.08 µM
  relative viability: 0.293
NCI-H838; first compound 0.253 µM
  relative viability: 0.235
NCI-H838; first compound 0.8 µM
  relative viability: 0.281
NCI-H838; first compound 2.53 µM
  relative viability: 0.272
LK-2; first compound 0.08 µM
  relative viability: 0.164
LK-2; first compound 0.253 µM
  relative viability: 0.176
LK-2; first compound 0.8 µM
  relative viability: 0.188
LK-2; first compound 2.53 µM
  relative viability: 0.148
NCI-H1355; first compound 0.08 µM
  relative viability: 0.662
NCI-H1355; first compound 0.253 µM
  relative viability: 0.474
NCI-H1355; first compound 0.8 µM
  relative viability: 0.56
NCI-H1355; first compound 2.53 µM
  relative viability: 0.374
SW 1573; first compound 0.08 µM
  relative viability: 0.177
SW 1573; first compound 0.253 µM
  relative viability: 0.138
SW 1573; first compound 0.8 µM
  relative viability: 0.302
SW 1573; first compound 2.53 µM
  relative viability: 0.156
UMC-11; first compound 0.08 µM
  relative viability: 0.19
UMC-11; first compound 0.253 µM
  relative viability: 0.191
UMC-11; first compound 0.8 µM
  relative viability: 0.227
UMC-11; first compound 2.53 µM
  relative viability: 0.213
NCI-H1734; first compound 0.08 µM
  relative viability: 0.314
NCI-H1734; first compound 0.253 µM
  relative viability: 0.253
NCI-H1734; first compound 0.8 µM
  relative viability: 0.261
NCI-H1734; first compound 2.53 µM
  relative viability: 0.247
NCI-H2228; first compound 0.08 µM
  relative viability: 0.283
NCI-H2228; first compound 0.253 µM
  relative viability: 0.267
NCI-H2228; first compound 0.8 µM
  relative viability: 0.297
NCI-H2228; first compound 2.53 µM
  relative viability: 0.268
NCI-H520; first compound 0.08 µM
  relative viability: 0.517
NCI-H520; first compound 0.253 µM
  relative viability: 0.444
NCI-H520; first compound 0.8 µM
  relative viability: 0.397
NCI-H520; first compound 2.53 µM
  relative viability: 0.499
NCI-H2347; first compound 0.08 µM
  relative viability: 0.59
NCI-H2347; first compound 0.253 µM
  relative viability: 0.466
NCI-H2347; first compound 0.8 µM
  relative viability: 0.411
NCI-H2347; first compound 2.53 µM
  relative viability: 0.481
201T; first compound 0.08 µM
  relative viability: 0.93
201T; first compound 0.8 µM
  relative viability: 0.904
201T; first compound 2.53 µM
  relative viability: 0.884
NCI-H2009; first compound 0.08 µM
  relative viability: 0.734
NCI-H2009; first compound 0.253 µM
  relative viability: 0.695
NCI-H2009; first compound 0.8 µM
  relative viability: 0.794
NCI-H2009; first compound 2.53 µM
  relative viability: 0.452
LOU-NH91; first compound 0.08 µM
  relative viability: 0.648
LOU-NH91; first compound 0.253 µM
  relative viability: 0.605
LOU-NH91; first compound 0.8 µM
  relative viability: 0.656
LOU-NH91; first compound 2.53 µM
  relative viability: 0.633
HCC-44; first compound 0.08 µM
  relative viability: 1.04
HCC-44; first compound 0.253 µM
  relative viability: 0.746
HCC-44; first compound 0.8 µM
  relative viability: 0.676
HCC-44; first compound 2.53 µM
  relative viability: 0.781
NCI-H1650; first compound 0.08 µM
  relative viability: 0.476
NCI-H1650; first compound 0.253 µM
  relative viability: 0.43
NCI-H1650; first compound 0.8 µM
  relative viability: 0.353
NCI-H1650; first compound 2.53 µM
  relative viability: 0.229
NCI-H1755; first compound 0.08 µM
  relative viability: 0.585
NCI-H1755; first compound 0.253 µM
  relative viability: 0.521
NCI-H1755; first compound 0.8 µM
  relative viability: 0.595
NCI-H1755; first compound 2.53 µM
  relative viability: 0.539
NCI-H358; first compound 0.08 µM
  relative viability: 0.101
NCI-H358; first compound 0.253 µM
  relative viability: 0.0983
NCI-H358; first compound 0.8 µM
  relative viability: 0.137
NCI-H358; first compound 2.53 µM
  relative viability: 0.11
HCC-366; first compound 0.08 µM
  relative viability: 0.0773
HCC-366; first compound 0.253 µM
  relative viability: 0.0701
HCC-366; first compound 0.8 µM
  relative viability: 0.071
HCC-366; first compound 2.53 µM
  relative viability: 0.0493
HCC-78; first compound 0.08 µM
  relative viability: 0.482
HCC-78; first compound 0.253 µM
  relative viability: 0.311
HCC-78; first compound 0.8 µM
  relative viability: 0.428
HCC-78; first compound 2.53 µM
  relative viability: 0.384
ABC-1; first compound 0.08 µM
  relative viability: 0.213
ABC-1; first compound 0.253 µM
  relative viability: 0.158
ABC-1; first compound 0.8 µM
  relative viability: 0.22
ABC-1; first compound 2.53 µM
  relative viability: 0.221
NCI-H2405; first compound 0.08 µM
  relative viability: 0.764
NCI-H2405; first compound 0.253 µM
  relative viability: 0.697
NCI-H2405; first compound 0.8 µM
  relative viability: 0.714
NCI-H2405; first compound 2.53 µM
  relative viability: 0.505
BEN; first compound 0.08 µM
  relative viability: 0.517
BEN; first compound 0.253 µM
  relative viability: 0.609
BEN; first compound 0.8 µM
  relative viability: 0.476
BEN; first compound 2.53 µM
  relative viability: 0.52
NCI-H1666; first compound 0.08 µM
  relative viability: 0.63
NCI-H1666; first compound 0.253 µM
  relative viability: 0.593
NCI-H1666; first compound 0.8 µM
  relative viability: 0.623
NCI-H1666; first compound 2.53 µM
  relative viability: 0.626
